One assay has as its system GSK-3. Put plainly: GSK-3 inhibition, isoform not stated. The format is biochemical. The note with it: no activity defined as an IC50 >10μM.
A further assay concerns MAPK5/PRAK. Conditions: at 2μM; cited from earlier work.
In another assay the test system is broad kinase screen. The note with it: cited from earlier work.
The test system of assay [1] is other kinases tested having a lysine at a position comparable to Arg141 in GSK-3β. The note with it: kinases with lysine at position comparable to Arg141; at 2 μM; cited from earlier work.

Results on three molecules are retold here after paper PMC11808539 (Bioorganic & medicinal chemistry letters, 2024).

With `OC1(c2ccccc2)CSC(=S)N1Cc1ccccn1` (stereo not drawn) [Compound 3d], the “activity (GSK-3 inhibition, in words)” value in the assay with GSK-3 is reported as “no activity”.
As to `OC1(c2ccccc2)CSC(=S)N1Cc1ccccc1` (stereo not drawn) [Compound 3a], the “activity (GSK-3 inhibition, in words)” value with GSK-3 is “no activity”.
On to `OC1(c2ccccc2)CSC(=S)N1Cc1ccncc1` (stereo not drawn) [Compound 3c], for which the % inhibition (as a rule, the change of the read-out against control, counted positive when it falls) in the assay with MAPK5/PRAK was 60%; in assay [1], less than 30%. Moreover, in the assay on GSK-3, the “activity (GSK-3 inhibition, in words)” value is given as “excellent activity”. In the assay with broad kinase screen, the “kinase selectivity (in words)” value is “the only kinases significantly inhibited by 3c were GSK-3β and GSK-3α”.
